According to patent US10633375B2, “Oxopicolinamide derivative, preparation method therefor and pharmaceutical use thereof” (Jiangsu Hengrui Medicine Co., Ltd., priority 2016, dated 2020):

Experiments:
[1] = test system: human blood; assay: In vitro anticoagulant effect on human blood (APTT, CT2); settings: Table 2; concentration corresponding to 2 times the APTT of the blank control, human plasma
Experimental: Test Example 2: Determination of In Vitro Anticoagulant Effect of the Compounds of the Present Invention on Human Blood
1. Experimental Materials
Plasma: Human blood was collected in blood collection tubes containing no anticoagulant, and then 3.8% sodium citrate (volume ratio 1:9) was added. The tubes were centrifuged at 2500 rpm for 10 minutes at room temperature, and then the plasma was collected and stored at −80° C.;
Reagents: APTT reagent (Activated partial thromboplastin time assay kit, SIEMENS, Art. No. B4218-1), calcium chloride solution;
Instrument: Coagulation instrument (SYSMEX, CA-500).
The divided plasma was melted at room temperature and mixed well. 10000 μM the test compound dissolved in 100% DMSO was diluted to 3000, 300, 200, 150, 75, 30, 10, 3, 0.3 μM with 100% DMSO, and the blank was 100% DMSO. The reagent, plasma, and compound were placed in corresponding positions in the coagulation instrument, and APTT detection of the compound was carried out.
Curve fitting was carried out by graphpad and CT2 was calculated, i.e., the concentration of the compound corresponding to 2 times the APTT of the blank control.

[2] = biological target: Coagulation Factor XIa protease (Homo sapiens (Human), UniProt P03951); assay: Inhibition of Factor XIa detected by absorption photometry; format: biochemical; settings: absorbance at 405 nm, 10 minutes at 37° C.
In short: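 Read-out was absorbance at 405 nm after 10 min incubation at 37° C. Compound dilutions in 100% DMSO (200 to 0.002 μM) were combined with FXIa (2.5 μg/ml solution), then FXIa-specific chromogenic substrate (2 mM solution) was added; both are stock concentrations, not final.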

Sequence of Coagulation Factor XIa protease (P03951 388-625): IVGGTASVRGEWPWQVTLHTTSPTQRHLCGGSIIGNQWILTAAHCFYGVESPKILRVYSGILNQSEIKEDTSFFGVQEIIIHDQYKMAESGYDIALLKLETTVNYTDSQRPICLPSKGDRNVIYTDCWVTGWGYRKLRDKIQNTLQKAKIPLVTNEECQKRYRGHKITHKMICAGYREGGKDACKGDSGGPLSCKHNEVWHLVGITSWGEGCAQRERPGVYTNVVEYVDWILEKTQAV
Sequence of Coagulation Factor XIa protease (P03951 19-387 partner): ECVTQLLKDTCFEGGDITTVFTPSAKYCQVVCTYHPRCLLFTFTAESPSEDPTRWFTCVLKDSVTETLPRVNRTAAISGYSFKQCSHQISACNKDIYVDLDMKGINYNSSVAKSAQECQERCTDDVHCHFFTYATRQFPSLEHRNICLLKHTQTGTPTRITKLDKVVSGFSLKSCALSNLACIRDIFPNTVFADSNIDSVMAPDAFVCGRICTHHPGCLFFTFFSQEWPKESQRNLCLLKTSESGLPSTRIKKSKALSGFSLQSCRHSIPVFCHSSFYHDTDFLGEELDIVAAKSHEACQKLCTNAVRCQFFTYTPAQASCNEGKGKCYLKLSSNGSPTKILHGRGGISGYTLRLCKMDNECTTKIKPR

Structure (SMILES)	CT2, concentration doubling APTT [1] [µM]	IC50 [2] [nM]
COc1cn(C(Cc2ccn(C)n2)C(=O)Nc2ccc(C(=O)O)cc2)c(=O)cc1-c1cc(Cl)ccc1C(C)=O (stereo not shown) [Example 100, 4-(2-(4-(2-acetyl-5-chlorophenyl)-5-methoxy-2-oxopyridin-1(2H)-yl)-3-(1-methyl-1H-pyrazol-3-yl)propanamido)benzoic acid]	3.3	35
COc1cn(C(Cc2ccn(C3CC3)n2)C(=O)Nc2ccc3nn(C)cc3c2)c(=O)cc1-c1cc(Cl)ccc1C(C)=O (stereo not drawn) [Example 97, 2-(4-(2-acetyl-5-chlorophenyl)-5-methoxy-2-oxopyridin-(2H)-yl)-3-(l-cyclopropyl-1H-pyrazol-3-yl)-N-(2-methyl-2H-indazol-5-yl)propanamide]	5.4	36
COc1cn([C@H](CCOC2CCC2)C(=O)Nc2ccc(C(=O)O)cc2)c(=O)cc1-c1cc(Cl)ccc1C(C)=O [Example 163, (R)-4-(2-(4-(2-acetyl-5-chlorophenyl)-5-methoxy-2-oxopyridin-1 (2H)-yl)-4-cyclobutoxybutanamido)benzoic acid]	>10000	9110
COCC[C@H](C(=O)Nc1ccc2[nH]c(C(=O)O)cc2c1)n1cc(OC)c(-c2cc(Cl)ccc2C(C)=O)cc1=O [Example 3, (R)-5-(2-(4-(2-acetyl-5-chlorophenyl)-5-methoxy-2-oxopyridin-1 (2H)-yl)-4-methoxybutanamido)-1H-indole-2-carboxylic acid]	>10000	1740
COc1cn(C(Cc2ccccc2)C(=O)Nc2ccc(C(=O)O)cc2)c(=O)cc1-c1cc(Cl)ccc1C(=O)CC1CC1 (stereo not shown) [Example 39, 4-(2-(4-(5-chloro-2-(2-cyclopropylacetyl)phenyl)-5-methoxy-2-oxopyridin-1(2H)-yl)-3-phenylpropanamido)benzoic acid]	8.3	38
CCC(=O)c1ccc(Cl)cc1-c1cc(=O)n(C(Cc2ccccc2)C(=O)Nc2ccc(C(=O)O)cc2)cc1OC (stereo not shown) [Example 8, 4-(2-(4-(5-chloro-2-propionylphenyl)-5-methoxy-2-oxopyridin-1(2H)-yl)-3-phenylpropanamido)benzoic acid]	6.4	17
COc1cn([C@H](CCOC(C)(C)C)C(=O)Nc2ccc(C(=O)O)cc2)c(=O)cc1-c1cc(Cl)ccc1C(C)=O [Example 112, (R)-4-(2-(4-(2-acetyl-5-chlorophenyl)-5-methoxy-2-oxopyridin-1(2H)-yl)-4-(tert-butoxy)butanamido)benzoic acid]	>10000	> 10000
COCC[C@@H](C(=O)Nc1ccc2[nH]c(C(=O)O)cc2c1)n1cc(OC)c(-c2cc(Cl)ccc2C(C)=O)cc1=O [Example 2, (S)-5-(2-(4-(2-acetyl-5-chlorophenyl)-5-methoxy-2-oxopyridin-1(2H)-yl)-4-methoxybutanamido)-1H-indole-2-carboxylic acid]	2.9	19
CCC(=O)c1ccc(Cl)cc1-c1cc(=O)n(C(Cc2ccn(C3CC3)n2)C(=O)Nc2ccc(C(=O)O)cc2)cc1OC (stereo not shown) [Example 91, 4-(2-(4-(5-chloro-2-propionylphenyl)-5-methoxy-2-oxopyridin-1 (2H)-yl)-3-(1-cyclopropyl-1H-pyrazol-3-yl)propanamido)benzoic acid]	2.1	
COc1cn([C@@H](Cc2ccn(C3CC3)n2)C(=O)Nc2ccc(C(=O)O)cc2)c(=O)cc1-c1cc(Cl)ccc1C(C)=O [Example 94, (S)-4-(2-(4-(2-acetyl-5-chlorophenyl)-5-methoxy-2-oxopyridin-1(2H)-yl)-3-(1-cyclopropyl-1H-pyrazol-3-yl)propanamido)benzoic acid]	2.2	24
[2H]C([2H])([2H])C(=O)c1ccc(Cl)cc1-c1cc(=O)n([C@@H](Cc2ccccc2)C(=O)Nc2ccc(C(=O)O)cc2)cc1OC [Example 183, 4-[[(2S)-2-[4-[5-chloro-2-(2,2,2-trideuteroacetyl)phenyl]-5-methoxy-2-oxo-1-pyridyl]-3-phenyl-propionyl]amino]benzoic acid]	2.6	
CCC(=O)c1ccc(Cl)cc1-c1cc(=O)n([C@@H](Cc2ccn(C3CC3)n2)C(=O)Nc2ccc(C(=O)O)cc2)cc1OC [Example 92, (S)-4-(2-(4-(5-chloro-2-propionylphenyl)-5-methoxy-2-oxopyridin-1 (2H)-yl)-3-(1-cyclopropyl-1H-pyrazol-3-yl)propanamido)benzoic acid]	1.2	
COCCC(C(=O)Nc1ccc2[nH]c(C(=O)O)cc2c1)n1cc(OC)c(-c2cc(Cl)ccc2C(C)=O)cc1=O (stereo not shown) [Example 1, 5-(2-(4-(2-acetyl-5-chlorophenyl)-5-methoxy-2-oxopyridin-1(2H)-yl)-4-methoxybutanamido)-1H-indole-2-carboxylic acid]	4.4	34
COc1cn([C@@H](Cc2ccccc2)C(=O)Nc2ccc3nn(C)cc3c2)c(=O)cc1-c1cc(Cl)ccc1C(C)=O [Example 20, (S)-2-(4-(2-acetyl-5-chlorophenyl)-5-methoxy-2-oxopyridin-1(2H)-yl)-N-(2-methyl-2H-indazol-5-yl)-3-phenylpropanamide]	6.5	36
COc1cn([C@@H](Cc2cnn(C)c2)C(=O)Nc2ccc(C(=O)O)cc2)c(=O)cc1-c1cc(Cl)ccc1C(C)=O [Example 105, (S)-4-(2-(4-(2-acetyl-5-chlorophenyl)-5-methoxy-2-oxopyridin-1(2H)-yl)-3-(1-methyl-1H-pyrazol-4-yl)propanamido)benzoic acid]	6.9	30
COc1cn(C(Cc2ccn(C3CC3)n2)C(=O)Nc2ccc(C(=O)O)cc2)c(=O)cc1-c1cc(Cl)ccc1C(C)=O (stereo not shown) [Example 93, 4-(2-(4-(2-acetyl-5-chlorophenyl)-5-methoxy-2-oxopyridin-1(2H)-yl)-3-(1-cyclopropyl-1H-pyrazol-3-yl)propanamido)benzoic acid]	2.9	42
CCNC(=O)c1ccc(NC(=O)[C@H](Cc2ccccc2)n2cc(OC)c(-c3cc(Cl)ccc3C(C)=O)cc2=O)cc1 [Example 37, (S)-4-(2-(4-(2-acetyl-5-chlorophenyl)-5-methoxy-2-oxopyridin-1 (2H)-yl)-3-phenylpropanamido)-N-ethylbenzamide]	7.8	29
CCC(=O)c1ccc(Cl)cc1-c1cc(=O)n([C@H](CCOC(C)(C)C)C(=O)Nc2ccc(C(=O)O)cc2)cc1OC [Example 109, (R)-4-(4-(tert-butoxy)-2-(4-(5-chloro-2-propionylphenyl)-5-methoxy-2-oxopyridin-1(2H)-yl)butanamido)benzoic acid]	>10000	
[2H]C([2H])([2H])Oc1cn([C@@H](Cc2ccccc2)C(=O)Nc2ccc(C(=O)O)cc2)c(=O)cc1-c1cc(Cl)ccc1C(C)=O [Example 179, 4-[[(2S)-2-[4-(2-acetyl-5-chloro-phenyl)-2-oxo-5-(trideuteromethoxy)-1-pyridyl]-3-phenyl-propionyl]amino]benzoic acid]	3.3	
COc1cn([C@H](Cc2ccccc2)C(=O)Nc2ccc(C(=O)O)cc2)c(=O)cc1-c1cc(Cl)ccc1C(C)=O [Example 6, (R)-4-(2-(4-(2-acetyl-5-chlorophenyl)-5-methoxy-2-oxopyridin-1(2H)-yl)-3-phenylpropanamido)benzoic acid]	>10000	
[2H]C([2H])([2H])Oc1cn([C@H](CCOC(C)(C)C)C(=O)Nc2ccc(C(=O)O)cc2)c(=O)cc1-c1cc(Cl)ccc1C(=O)CC [Example 178, 4-[[(2R)-4-tert-butoxy-2-[4-(5-chloro-2-propionyl-phenyl)-2-oxo-5-(trideuteromethoxy)-1-pyridyl]butyryl]amino]benzoic acid]	>10000	
[2H]C([2H])([2H])Oc1cn([C@H](Cc2ccccc2)C(=O)Nc2ccc(C(=O)O)cc2)c(=O)cc1-c1cc(Cl)ccc1C(C)=O [Example 180, 4-[[(2R)-2-[4-(2-acetyl-5-chloro-phenyl)-2-oxo-5-(trideuteromethoxy)-1-pyridyl]-3-phenyl-propionyl]amino]benzoic acid]	>10000	
[2H]c1c([2H])c([2H])c(C([2H])([2H])[C@@H](C(=O)Nc2ccc(C(=O)O)cc2)n2cc(OC)c(-c3cc(Cl)ccc3C(C)=O)cc2=O)c([2H])c1[2H] [Example 181, 4-[[(2S)-2-[4-(2-acetyl-5-chloro-phenyl)-5-methoxy-2-oxo-1-pyridyl]-3,3-dideutero-3-(2,3,4,5,6-pentadeuterophenyl)propionyl]amino]benzoic acid]	2.3	
